Patent publication US6555372B1, “Composition for enhancing cellular immunogenicity comprising alpha-glycosylceramides” (Kirin Beer Kabushiki Kaisha, priority 1997, dated 2003)

Key:
[1] = system: B16, EL-4, Lewis lung carcinoma, Colon 26, L1210 and Meth A mouse tumor cells; assay: Effect of α-glycosylceramide on tumorigenicity of tumor cells; type: in vivo; settings: six mouse tumor cell lines cultured 1 day with 100 ng/ml, implanted i.v. into C57BL/6 or BALB/c mice; FIG. 4
From the text: Six kinds of mouse tumor cells, i.e., three kinds of C57BL/6 mouse-derived tumor cells, i.e., murine melanoma B16 cells (Dainippon Pharmaceutical Co., Ltd.), mouse T lymphoma EL-4 cells (Dainippon Pharmaceutical Co., Ltd.) and mouse Lewis lung carcinoma cells (Dainippon Pharmaceutical Co., Ltd.), and three kinds of BALB/c-mouse derived tumor cells, i.e., mouse colon cancer cell Colon 26 (Japanese Foundation for Cancer Research), mouse leukemia L1210 cells (Japanese Foundation for Cancer Research) and mouse fibrosarcoma Meth A cells (Japanese Foundation for Cancer Research) were cultured with or without an addition of a vehicle (0.1% DMSO) or KRN 7000 (100 ng/ml) for one day as described in Pharmacological Tests above. The resulting tumor cells were washed twice with a medium, suspended again in a fresh medium and implanted intravenously into the tail of corresponding mice. […]
The tumor cells implanted intravenously into the tail formed metastasized nodules in various organs, particularly in the liver or lung, and ultimately killed the animals. Accordingly, the effect of the tumor cells on tumorigenicity (a rate of tumor formation, the ability to form tumor burden) was evaluated by observing the survival period.

[2] = system: Mouse T lymphoma EL-4 cells; assay: Therapeutic effect of treated tumor cells in EL-4 liver metastasis model mice; type: in vivo
Protocol: Mouse T lymphoma EL-4 cells (4×10^5 cells/mouse) were implanted intravenously into the tail of BDF1 mice (female, 6 weeks of age, Japan SLC, Inc.), 6 animals in one group, to prepare cancer-bearing mice. The days of tumor implantation was set to be day 0. On the same day, a vehicle (0.1% DMSO), KRN 7000 (100 ng/ml) or AGL-583 (100 ng/ml) was added to EL-4 cells which had been inoculated into a fresh medium, in the same manner as in Pharmacological Test 1 above. One day after the start of incubation, cells of EL-4/V, EL-4/KRN and EL-4/583 cultured in the presence of the vehicle, KRN 7000 and AGL-583, respectively, were recovered and washed twice with the medium, after which the recovered cells were immunized intravenously into the tail of the cancer-bearing mice at 1×10^5 cells/mouse. The resulting antitumor effect was compared.
EL-4 implanted mice generally died in about 30 days owing to the tumor formation and growth in several organs, particularly in the liver. Therefore, antitumor effect was evaluated by observing the survival period of cancer-bearing hosts.

[3] = EL-4-bearing BDF1 mice immunized i.v. on day 1 with 1×10^5 EL-4 cells cultured 1 day with 100 ng/ml compound, vs control mice with tumor only, FIG. 2

SMILES	tumorigenicity of treated tumor cells [1]	survival period [2, 3]	treated mice survived for a long term ([2]; EL-4-bearing BDF1 mice immunized i.v. with 1×10^5 EL-4 cells cultured 1 day with 100 ng/ml compound, 6 animals per group) [%]	antitumor effect [2, 3]
CCCCCCCCCCCCCCCCCCCCCCCCCC(=O)N[C@@H](CO[C@H]1O[C@H](CO)[C@H](O)[C@H](O)[C@H]1O)[C@H](O)[C@H](O)CCCCCCCCCCCCCC [KRN 7000, (2S,3S,4R)-1-(α-D-galactopyranosyloxy)-2-hexacosanoylamino-3,4-octadecanediol]	diminished or completely abolished	markedly prolonged	33.3	–
CCCCCCCCCCCCCCCCCCCCCCCCCC(=O)N[C@@H](CO[C@@H]1O[C@H](CO)[C@H](O)[C@H](O)[C@H]1O)[C@H](O)[C@H](O)CCCCCCCCCCCCCC [AGL-583, reference compound]	–	not prolonged at all	–	no evident antitumor effect was observed
